# From patent publication US6900219B2, “ABCA-1 elevating compounds” (CV Therapeutics, Inc., priority 2002, dated 2005)
# Test system: ABCA-1 gene
# Experiment: compounds tested and found to elevate cellular expression of the ABCA-1 gene (Examples 1-6; test not named)
# Assay type: cell-based
# Method: Activity testing is conducted as described in those patents and patent applications referenced above, and in the Examples below, and by methods apparent to one skilled in the art.
row,Compound,cellular expression of the ABCA-1 gene
1,CN(C)c1ccc(CN(C(=O)Nc2ccccc2F)c2ccc3c(c2)CCC3)cc1 [({[4-(dimethylamino)phenyl]methyl}indan-5-ylamino)-N-(2-fluorophenyl)carboxamide],elevate cellular expression of the ABCA-1 gene
2,Cc1cc(C(=O)c2cc3ccccc3o2)ccc1Cl [benzo[d]furan-2-yl 4-chloro-3-methylphenyl ketone],elevate cellular expression of the ABCA-1 gene
3,"CCOC(=O)C1CCCCN1C(=O)c1ccc2c(c1)OCO2 (stereo not shown) [ethyl 1-(2H-benzo[d]1,3-dioxolen-5-ylcarbonyl)piperidine-2-carboxylate]",elevate cellular expression of the ABCA-1 gene
4,Cc1onc(-c2ccccc2Cl)c1C(=O)Nc1nc2ccccc2s1 [N-benzothiazol-2-yl[3-(2-chlorophenyl)-5-methylisoxazol-4-yl]carboxamide],elevate cellular expression of the ABCA-1 gene
5,(3-chlorobenzo[b]thiophen-2-yl)-N-(ethynylcyclohexyl)carboxamide,elevate cellular expression of the ABCA-1 gene
6,"CCCCCc1ccc(NC(=O)NC2=NCCS2)cc1 [[(4-pentylphenyl)amino]-N-(1,3-thiazolin-2-yl)carboxamide]",elevate cellular expression of the ABCA-1 gene
7,CC(C)CN(C(=O)Nc1cccc(Cl)c1)C(C)c1nc2ccccc2c(=O)n1-c1ccc2ccccc2c1 (stereo not shown) [[(3-chlorophenyl)amino]-N-(2-methylpropyl)-N-[(3-(2-naphthyl)-4-oxo(3-hydroquinazolin-2-yl))ethyl]carboxamide],elevate cellular expression of the ABCA-1 gene
8,"O=C(Nc1ccc2c(c1)OCCO2)Nc1ccc([N+](=O)[O-])cc1Cl [N-(2H,3H-benzo[e]1,4-dioxin-6-yl)[(2-chloro-4-nitrophenyl)amino]carboxamide]",elevate cellular expression of the ABCA-1 gene
9,CCN(CCCN(CC)c1nc2cc(C(=O)Nc3ccc(OC)cc3)ccc2o1)C(=O)c1ccoc1 [(2-{ethyl[3-(N-ethyl-3-furylcarbonylamino)propyl]amino}benzoxazol-5-yl)-N-(4-methoxyphenyl)carboxamide],elevate cellular expression of the ABCA-1 gene
10,O=C(NCC1CCCCC1)Nc1ccc2c(c1)CCC2 [[(cyclohexylmethyl)amino]-N-indan-5-ylcarboxamide],elevate cellular expression of the ABCA-1 gene
11,O=C(Nc1cccc(Cl)c1)Nc1nc2ccccc2s1 [N-benzothiazol-2-yl[(3-chlorophenyl)amino]carboxamide],elevate cellular expression of the ABCA-1 gene
12,"COc1cc(OC)cc(C(=O)NC2=NCCS2)c1 [(3,5-dimethoxyphenyl)-N-(1,3-thiazolin-2-yl)carboxamide]",elevate cellular expression of the ABCA-1 gene
13,O=C(c1ccc(Br)cc1)N(CCc1ccccc1)Cc1ccc(C(F)(F)F)cc1 [(4-bromophenyl)-N-(2-phenylethyl)-N-{[4-(trifluoromethyl)phenyl]methyl}-carboxamide],elevate cellular expression of the ABCA-1 gene
14,"O=C1CSC(NC(=O)c2ccc(Cl)c(Cl)c2)=N1 [(3,4-dichlorophenyl)-N-(4-oxo(1,3-thiazolin-2-yl))carboxamide]",elevate cellular expression of the ABCA-1 gene
15,"Cc1c(C(=O)NC2CC2)cnn1-c1nc(-c2ccccc2)cs1 [N-cyclopropyl[5-methyl-1-(4-phenyl(1,3-thiazol-2-yl))pyrazol-4-yl]carboxamide]",elevate cellular expression of the ABCA-1 gene
16,O=C(Nc1ccc2c(c1)CCC2)NC1CCCCC1 [(cyclohexylamino)-N-indan-5-ylcarboxamide],elevate cellular expression of the ABCA-1 gene
17,O=C(Nc1cccc(Cl)c1)Nc1ccc2c(c1)CCC2 [[(3-chlorophenyl)amino]-N-indan-5-ylcarboxamide],elevate cellular expression of the ABCA-1 gene
18,COc1ccc(C(=O)O/N=C(/N)c2cccnc2)cc1 [(1E)-2-amino-1-aza-2-(3-pyridyl)vinyl 4-methoxybenzoate],elevate cellular expression of the ABCA-1 gene
19,"CCCCNC(=O)c1cnn(-c2nc(-c3ccc(C)cc3)cs2)c1C [{5-methyl-1-[4-(4-methylphenyl)(1,3-thiazol-2-yl)]pyrazol-4-yl}-N-butylcarboxamide]",elevate cellular expression of the ABCA-1 gene

row,Compound,cellular expression of the ABCA-1 gene
1,"N#Cc1ccc(C(=O)Nc2ncc(-c3ccccc3)s2)cc1 [(4-cyanophenyl)-N-(5-phenyl(1,3-thiazol-2-yl))carboxamide]",elevate cellular expression of the ABCA-1 gene
2,"O=C(NC1=NCCS1)c1ccc(Cl)cc1 [(4-chlorophenyl)-N-(1,3-thiazolin-2-yl)carboxamide]",elevate cellular expression of the ABCA-1 gene
3,"CCOC(=O)C1=C(NCCc2ccccc2)CCN(C(=O)c2ccccc2C)C1 [ethyl 1-[(2-methylphenyl)carbonyl]-4-[(2-phenylethyl)amino]-1,2,5,6-tetrahydropyridine-3-carboxylate]",elevate cellular expression of the ABCA-1 gene
4,Cc1ccc(NC(=O)N(CC(C)C)C(C)c2nc3ccccc3c(=O)n2-c2ccc3ccccc3c2)cc1 (stereo not shown) [[(4-methylphenyl)amino]-N-(2-methylpropyl)-N-[(3-(2-naphthyl)-4-oxo(3-hydroquinazolin-2-yl))ethyl]carboxamide],elevate cellular expression of the ABCA-1 gene
5,Cc1onc(-c2c(F)cccc2Cl)c1C(=O)Nc1nc2ccccc2s1 [N-benzothiazol-2-yl[3-(6-chloro-2-fluorophenyl)-5-methylisoxazol-4-yl]carboxamide],elevate cellular expression of the ABCA-1 gene
6,CCCCN(C(=O)Nc1ccc(OC)cc1)C(C)c1nc2ccccc2c(=O)n1-c1ccc(Br)cc1 (stereo not shown) [N-{[3-(4-bromophenyl)-4-oxo(3-hydroquinazolin-2-yl)]ethyl}-N-butyl[(4-methoxyphenyl)amino]carboxamide],elevate cellular expression of the ABCA-1 gene
7,"O=C(Nc1cccc(O)c1)Nc1ccc(Cl)c(Cl)c1 [N-(3,4-dichlorophenyl)[(3-hydroxyphenyl)amino]carboxamide]",elevate cellular expression of the ABCA-1 gene
8,"CCOC(=O)C1=C(NCCc2ccccc2)CCN(C(=O)c2ccc(OC)cc2)C1 [ethyl 1-[(4-methoxyphenyl)carbonyl]-4-[(2-phenylethyl)amino]-1,2,5,6-tetrahydropyridine-3-carboxylate]",elevate cellular expression of the ABCA-1 gene
9,"O=C(NC1=NCCS1)c1cccc(Cl)c1 [(3-chlorophenyl)-N-(1,3-thiazolin-2-yl)carboxamide]",elevate cellular expression of the ABCA-1 gene
10,"Cc1cc(C)c2oc(-c3ccc(NC(=O)c4ccccc4Br)cc3)nc2c1 [N-[4-(5,7-dimethylbenzoxazol-2-yl)phenyl](2-bromophenyl)carboxamide]",elevate cellular expression of the ABCA-1 gene
11,"Cc1c(C(=O)NC2CC2)cnn1-c1nc(C(C)(C)C)cs1 [{1-[4-(tert-butyl)(1,3-thiazol-2-yl)]-5-methylpyrazol-4-yl}-N-cyclopropylcarboxamide]",elevate cellular expression of the ABCA-1 gene
12,"CCOC(=O)C1=C(NCCc2ccccc2)CCN(C(=O)c2ccc(CC)cc2)C1 [ethyl 1-[(4-ethylphenyl)carbonyl]-4-[(2-phenylethyl)amino]-1,2,5,6-tetrahydropyridine-3-carboxylate]",elevate cellular expression of the ABCA-1 gene
13,Cc1ccccc1NC(=O)N(CC(C)C)C(C)c1nc2ccccc2c(=O)n1-c1ccc2ccccc2c1 (stereo not shown) [[(2-methylphenyl)amino]-N-(2-methylpropyl)-N-[(3-(2-naphthyl)-4-oxo(3-hydroquinazolin-2-yl))ethyl]carboxamide],elevate cellular expression of the ABCA-1 gene
14,COc1cccc(NC(=O)N(CCN(C)C)C(C)c2nc3ccccc3c(=O)n2-c2ccc3ccccc3c2)c1 (stereo not shown) [N-[2-(dimethylamino)ethyl][(3-methoxyphenyl)amino]-N-[(3-(2-naphthyl)-4-oxo(3-hydroquinazolin-2-yl))ethyl]carboxamide],elevate cellular expression of the ABCA-1 gene
15,CCCc1c(C(=O)N2CCN(C(=O)C(CC)c3ccccc3)C(C)C2)cnn1-c1nc(-c2cccc(OC)c2)cs1 (stereo not shown) [1-(4-{1-[4-(3-methoxy-phenyl)-thiazol-2-yl]-5-propyl-1H-pyrazole-4-carbonyl}-2-methyl-piperazin-1-yl)-2-phenyl-butan-1-one],elevate cellular expression of the ABCA-1 gene
16,"CC(C)(C)c1ccc(-c2nc3cccc(F)c3c(=O)o2)cc1 [2-[4-(tert-butyl)phenyl]-5-fluorobenzo[d]1,3-oxazin-4-one]",elevate cellular expression of the ABCA-1 gene
17,CS(=O)(=O)c1ccc2nc(NC(=O)c3cccs3)sc2c1 [N-[6-(methylsulfonyl)benzothiazol-2-yl]-2-thienylcarboxamide],elevate cellular expression of the ABCA-1 gene
18,COc1ccc(-c2nc3cc(/N=C/c4cccc([N+](=O)[O-])c4)ccc3o2)cc1 [1-{5-[(1E)-1-aza-2-(3-nitrophenyl)vinyl]benzoxazol-2-yl}-4-methoxybenzene],elevate cellular expression of the ABCA-1 gene
